± gives the standard deviation of the averaged measurements.
How the values were obtained:
Experiment in all cases: level (log10 ratio to DMSO vehicle control); higher = higher biomarker level / cell amount than vehicle control
[1] = compound: C=C(C)C(=O)OCCC(F)(F)C(F)(F)C(F)(F)C(F)(F)C(F)(F)C(F)(F)F [6:2 Fluorotelomer methacrylate]; settings: in DMSO
Method: (§1)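 BioMAP Diversity Plus panel of 12 human primary cell co-culture systems (3C, 4H, LPS, SAg, BT, BF4T, BE3C, CASM3C, HDF3CGF, KF3CT, MyoF, Mphg). Compounds were added 1 h before stimulation and left for 24 h (MyoF 48 h; BT 72 h for soluble read-outs or 6 d for IgG). Biomarkers were read by ELISA, cytotoxicity by SRB, PBMC viability and proliferation by Alamar Blue. Each well value was divided by the mean of 8 DMSO control wells on the same plate and log10 transformed; duplicate blinded samples were tested at 4 concentrations.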

[2] = compound: C=CC(=O)OCC(F)(F)C(F)(F)C(F)(F)COC(=O)C=C [1H,1H,5H,5H-Perfluoro-1,5-pentanediol diacrylate]; settings: 6700 nM; in DMSO
Method: as §1

[3] = compound: COC(=O)C(F)(F)C(F)(F)OC(F)(C(F)(F)F)C(F)(F)OC(F)=C(F)F [Methyl perfluoro(3-(1-ethenyloxypropan-2-yloxy)propanoate)]; settings: in DMSO
Method: as §1

[4] = compound: FC(F)(F)C(F)(F)C(F)(F)C(F)(F)C(F)(F)C(F)(F)C(F)(F)I [1-Iodopentadecafluoroheptane]; settings: in DMSO
Method: as §1

Heptafluorobutyl iodide = compound: FC(F)(F)C(F)(F)C(F)(F)CI [Heptafluorobutyl iodide]; settings: in DMSO
Method: as §1

[5] = compound: O=C(O)C(F)(F)C(F)(F)C(F)(F)C(F)(F)C(F)(F)C(F)(F)C(F)(F)C(F)(F)C(F)(F)C(F)F [11-H-Perfluoroundecanoic acid]; settings: in DMSO
Method: as §1

[6] = compound: O=C(O)C=CC(F)(C(F)(F)F)C(F)(F)F [3-(Perfluoroisopropyl)-2-propenoic acid]; settings: in DMSO
Method: as §1

[7] = compound: O=S(=O)(O)C(F)(F)C(F)(F)C(F)(F)C(F)(F)C(F)(F)C(F)(F)C(F)(F)C(F)(F)C(F)(F)C(F)(F)F [Sodium perfluorodecanesulfonate]; settings: in DMSO
Method: as §1

Test System | level (log10) ([1]; 6700 nM) | level (log10) ([1]; 20000 nM) | level (log10) ([1]; 60000 nM) | level (log10) [2] | level (log10) ([3]; 6700 nM) | level (log10) ([3]; 20000 nM) | level (log10) ([4]; 6700 nM) | level (log10) ([4]; 20000 nM) | level (log10) (Heptafluorobutyl iodide; 6700 nM) | level (log10) (Heptafluorobutyl iodide; 20000 nM) | level (log10) (Heptafluorobutyl iodide; 60000 nM) | level (log10) ([5]; 6700 nM) | level (log10) ([5]; 20000 nM) | level (log10) ([6]; 6700 nM) | level (log10) ([6]; 20000 nM) | level (log10) ([6]; 60000 nM) | level (log10) ([7]; 1500 nM) | level (log10) ([7]; 4400 nM) | level (log10) ([7]; 13000 nM) | level (log10) ([7]; 40000 nM)
LPS:CD40 | -0.022 ± 0.045 | -0.04 ± 0.024 | -0.0335 ± 0.11 | -0.209 ± 0.024 | 0.0235 ± 0.035 | -0.0365 ± 0.022 | 0.0645 ± 0.11 | -0.006 ± 0.15 | -0.045 ± 0.018 | -0.0035 ± 0.013 | 0.001 ± 0.0057 | -0.0115 ± 0.015 | -0.0505 ± 0.03 | -0.008 ± 0.0085 | 0.008 ± 0.048 | -0.017 ± 0.079 | -0.017 ± 0.024 | -0.028 ± 0.0099 | -0.0525 ± 0.0078 | -0.242 ± 0.026
LPS:CD62E/E-Selectin | 0.0095 ± 0.018 | 0.003 ± 0.018 | 0.0335 ± 0.0064 | -0.0265 ± 0.022 | -0.0165 ± 0.0035 | -0.0085 ± 0.00071 | -0.0155 ± 0.005 | -0.002 ± 0.0071 | 0.005 ± 0.1 | -0.013 ± 0.0028 | 0.026 ± 0.068 | 0.0035 ± 0.019 | 0.0095 ± 0.025 | 0.0055 ± 0.015 | -0.013 ± 0.0042 | 0.0165 ± 0.0035 | -0.019 ± 0.02 | -0.045 ± 0.059 | -0.0425 ± 0.069 | -0.084 ± 0.076
LPS:CD69 | -0.0355 ± 0.019 | -0.0095 ± 0.026 | 0.0175 ± 0.053 | -0.0365 ± 0.036 | -0.0435 ± 0.0078 | -0.053 ± 0.013 | -0.0105 ± 0.033 | 0.037 ± 0.0057 | -0.0635 ± 0.011 | -0.054 ± 0.013 | -0.021 ± 0.048 | -0.024 | -0.057 | -0.0365 ± 0.025 | -0.0375 ± 0.00071 | -0.0255 ± 0.023 | -0.028 ± 0.021 | -0.045 ± 0.011 | -0.0585 ± 0.00071 | -0.16 ± 0.054
LPS:CD142/Tissue Factor | 0.007 ± 0.09 | 0.0765 ± 0.043 | 0.0165 ± 0.098 | -0.107 ± 0.03 | -0.0235 ± 0.00071 | 0.009 ± 0.011 | 0.0105 ± 0.07 | 0.036 ± 0.02 | -0.046 ± 0.1 | -0.013 ± 0.082 | 0.0295 ± 0.043 | 0.012 ± 0.034 | -0.033 ± 0.041 | 0.0105 ± 0.0078 | -0.021 ± 0.025 | 0.006 ± 0.021 | -0.0155 ± 0.043 | -0.011 ± 0.021 | -0.06 ± 0.0042 | -0.177 ± 0.1
LPS:CXCL8/IL-8 | 0.006 ± 0.014 | 0.023 ± 0.011 | 0.0455 ± 0.015 | -0.0285 ± 0.00071 | 0.019 ± 0.0042 | 0.0355 ± 0.019 | 0.026 ± 0.055 | 0.0325 ± 0.005 | 0.022 ± 0.13 | 0.042 ± 0.076 | 0.087 ± 0.0071 | -0.0065 ± 0.023 | 0.016 ± 0.011 | -0.0055 ± 0.019 | -0.0205 ± 0.023 | -0.0015 ± 0.019 | -0.022 ± 0.025 | 0.032 ± 0.018 | 0.0335 ± 0.054 | -0.176 ± 0.016
LPS:IL-1alpha | -0.0225 ± 0.079 | -0.0355 ± 0.022 | 0.052 ± 0.0042 | -0.078 ± 0.038 | 0.0045 ± 0.022 | 0.0515 ± 0.011 | -0.0655 ± 0.03 | -0.0495 ± 0.047 | 0.019 ± 0.11 | 0.0205 ± 0.023 | 0.0485 ± 0.029 | -0.022 ± 0.011 | 0.004 ± 0.031 | 0.025 ± 0.034 | 0.0195 ± 0.05 | 0.0605 ± 0.023 | 0.0145 ± 0.026 | -0.0335 ± 0.032 | -0.004 ± 0.041 | -0.178 ± 0.1
MyoF:CXCL8/IL-8 | -0.0055 ± 0.021 | 0.051 ± 0.0057 | 0.041 ± 0.0085 | 0.003 ± 0.014 | 0.083 ± 0.04 | 0.154 ± 0.034 | 0.028 ± 0.018 | 0.034 ± 0.038 | -0.0205 ± 0.0035 | -0.0475 ± 0.0092 | -0.0395 ± 0.011 | -0.0375 ± 0.03 | -0.071 ± 0.028 | -0.0445 ± 0.0064 | -0.032 ± 0.0028 | -0.0025 ± 0.019 | -0.04 ± 0.0071 | -0.039 ± 0.0071 | -0.021 ± 0.023 | 0.02 ± 0.044
MyoF:Collagen I | -0.0085 ± 0.0092 | -0.0095 ± 0.00071 | -0.009 ± 0.0099 | -0.0165 ± 0.0035 | -0.007 ± 0.011 | 0.0095 ± 0.019 | -0.0495 ± 0.0021 | -0.339 ± 0.012 | -0.0015 ± 0.0035 | -0.0195 ± 0.005 | 0.013 ± 0.018 | -0.0625 ± 0.0092 | -0.312 ± 0.023 | -0.0025 ± 0.012 | -0.002 ± 0.0042 | 0.002 ± 0.0085 | -0.003 ± 0.02 | -0.006 ± 0.0028 | -0.003 ± 0.0057 | -0.0415 ± 0.00071
MyoF:Collagen III | 0.008 ± 0.027 | 0.012 ± 0.0057 | 0.006 ± 0.017 | -0.027 ± 0.013 | -0.0145 ± 0.013 | -0.005 ± 0.0071 | -0.0365 ± 0.005 | -0.311 ± 0.093 | -0.0095 ± 0.019 | -0.033 ± 0.013 | -0.0205 ± 0.033 | -0.0405 ± 0.005 | -0.475 ± 0.079 | -0.0055 ± 0.022 | 0.003 ± 0.0071 | 0.0075 ± 0.005 | 0.0125 ± 0.037 | 0.02 ± 0.0057 | -0.0005 ± 0.0035 | -0.0455 ± 0.0021
MyoF:Collagen IV | -0.075 ± 0.11 | -0.0395 ± 0.076 | -0.02 ± 0.1 | 0.03 ± 0.047 | -0.0215 ± 0.04 | -0.0235 ± 0.028 | 0.0705 ± 0.049 | 0.279 ± 0.09 | -0.021 ± 0.0071 | -0.0325 ± 0.016 | -0.0185 ± 0.039 | 0.141 ± 0.0028 | 0.293 ± 0.034 | -0.01 ± 0.023 | 0.0025 ± 0.0078 | 0.0205 ± 0.022 | 0.014 ± 0.02 | 0.035 ± 0.0085 | 0.0215 ± 0.0035 | 0.0065 ± 0.033
MyoF:Decorin | -0.0045 ± 0.033 | 0.0325 ± 0.028 | 0.015 ± 0.0042 | -0.0325 ± 0.0064 | 0.0595 ± 0.022 | 0.07 ± 0.017 | 0.0365 ± 0.049 | 0.0215 ± 0.029 | 0.0045 ± 0.016 | -0.016 ± 0.0071 | 0.005 ± 0.0042 | 0.0415 ± 0.077 | 0.052 ± 0.031 | -0.0045 ± 0.021 | 0.004 ± 0.0014 | 0.0225 ± 0.029 | -0.0285 ± 0.016 | 0.013 ± 0.0099 | -0.0025 ± 0.016 | 0.034
MyoF:PAI-I | -0.0165 ± 0.015 | -0.016 ± 0.0028 | -0.0165 ± 0.005 | -0.0055 ± 0.03 | 0.0105 ± 0.0035 | 0.0315 ± 0.0078 | -0.013 ± 0.016 | -0.075 | -0.0105 ± 0.0021 | -0.005 ± 0.0028 | 0.007 ± 0.023 | 0.0105 ± 0.012 | -0.013 ± 0.02 | 0.0125 ± 0.0078 | 0.007 ± 0.0099 | 0.009 ± 0.0014 | 0.019 ± 0.02 | 0.0335 ± 0.029 | 0.0505 ± 0.0035 | 0.063 ± 0.0085
